Assay results as given in US20240270821A1, “GIP/GLP1/GCG TRI-RECEPTOR AGONISTS AND USES THEREOF” (priority 2023, published 2024).
Starred links: 1 amine or outer side, 2 acyl side, 3 side chain; linkers in the order of their positions; H or OH if unused. Non-standard residues stand in square brackets, D forms with d. Residues, ends and D or L forms follow the SMILES beside them. Groups on a side chain read outwards from the residue. *: point of attachment. C18 diacid = O=C(O)CCCCCCCCCCCCCCCCC(=O)*; γGlu = O=C(O)[C@H](CCC(=O)[*:2])N[*:1]; αMeF = C[C@](N)(Cc1ccccc1)C(=O)O; αMeL = CC(C)C[C@](C)(N)C(=O)O; Orn = NCCC[C@H](N)C(=O)O; AEEA = NCCOCCOCC(=O)O; Aib = CC(C)(N)C(=O)O

Columns and labels:
Format in all cases: cell-based
[1] = molecular target: T1, hGLP-1R (Homo sapiens, UniProt P43220); test: Functional cAMP activity in the presence of 1% HSA; settings: read-out: cAMP Rel EC50, hGLP-1R
[2] = molecular target: T1, hGLP-1R; test: Functional cAMP activation in the presence of 0.1% casein (no HSA); settings: read-out: Relative cAMP EC50, hGLP-1R;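 as to Relative cAMP EC50, hGIPR: intracellular cAMP rise after 30 min at 37 °C read by HTRF against a standard curve, scaled between buffer alone (0%) and top control ligand concentration (100%), four-parameter fit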;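 as to Relative cAMP EC50, hGLP-1R: intracellular cAMP rise after 30 min at 37 °C read by HTRF, normalized between buffer only (0%) and maximal control ligand (100%), four-parameter variable-slope fit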
[3] = molecular target: human GcgR (Homo sapiens, UniProt P47871); test: Functional cAMP activity in the presence of 1% HSA; settings: read-out: cAMP Rel EC50, hGcgR
[4] = molecular target: hGcgR (Homo sapiens, UniProt P47871); test: Functional cAMP activation in the presence of 0.1% casein (no HSA); settings: read-out: Relative cAMP EC50, hGcgR;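 also: intracellular cAMP rise after 30 min at 37 °C, read by HTRF against a cAMP standard curve, scaled from buffer only (0%) to maximal control ligand response (100%)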
[5] = molecular target: T2, hGIPR (Homo sapiens, UniProt P48546); test: as above; settings: read-out: Relative cAMP EC50, hGIPR;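 also: intracellular cAMP rise after 30 min at 37 °C read by HTRF against a standard curve, scaled between buffer alone (0%) and top control ligand concentration (100%), four-parameter fit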
T2 sequence (P48546 22-466): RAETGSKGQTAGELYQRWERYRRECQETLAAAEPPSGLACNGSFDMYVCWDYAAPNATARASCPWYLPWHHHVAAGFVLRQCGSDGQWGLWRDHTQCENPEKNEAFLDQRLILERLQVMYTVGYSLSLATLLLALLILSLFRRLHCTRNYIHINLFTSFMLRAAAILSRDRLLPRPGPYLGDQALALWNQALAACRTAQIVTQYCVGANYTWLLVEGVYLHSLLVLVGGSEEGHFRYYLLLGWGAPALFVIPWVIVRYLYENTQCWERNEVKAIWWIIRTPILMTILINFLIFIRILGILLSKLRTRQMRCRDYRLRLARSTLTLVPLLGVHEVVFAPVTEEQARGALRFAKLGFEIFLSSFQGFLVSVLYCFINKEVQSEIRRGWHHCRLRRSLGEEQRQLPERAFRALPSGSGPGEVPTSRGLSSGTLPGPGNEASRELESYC

[6] = molecular target: T2, hGIPR; test: Functional cAMP activity in the presence of 1% HSA; settings: read-out: cAMP Rel EC50, hGIPR

T1 sequence (P43220 24-463): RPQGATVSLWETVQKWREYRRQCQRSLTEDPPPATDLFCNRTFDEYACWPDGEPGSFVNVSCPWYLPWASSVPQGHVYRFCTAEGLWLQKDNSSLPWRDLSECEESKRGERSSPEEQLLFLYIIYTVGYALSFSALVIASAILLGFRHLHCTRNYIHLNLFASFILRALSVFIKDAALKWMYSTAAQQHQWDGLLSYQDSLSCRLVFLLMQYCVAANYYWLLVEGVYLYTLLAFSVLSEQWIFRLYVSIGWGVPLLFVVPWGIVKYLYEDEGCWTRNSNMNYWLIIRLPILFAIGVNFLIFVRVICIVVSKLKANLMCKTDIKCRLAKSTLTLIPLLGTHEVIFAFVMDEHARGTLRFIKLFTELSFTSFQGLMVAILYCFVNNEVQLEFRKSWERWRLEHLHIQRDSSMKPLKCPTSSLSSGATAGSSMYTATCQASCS
Chain of hGcgR (P47871 26-477): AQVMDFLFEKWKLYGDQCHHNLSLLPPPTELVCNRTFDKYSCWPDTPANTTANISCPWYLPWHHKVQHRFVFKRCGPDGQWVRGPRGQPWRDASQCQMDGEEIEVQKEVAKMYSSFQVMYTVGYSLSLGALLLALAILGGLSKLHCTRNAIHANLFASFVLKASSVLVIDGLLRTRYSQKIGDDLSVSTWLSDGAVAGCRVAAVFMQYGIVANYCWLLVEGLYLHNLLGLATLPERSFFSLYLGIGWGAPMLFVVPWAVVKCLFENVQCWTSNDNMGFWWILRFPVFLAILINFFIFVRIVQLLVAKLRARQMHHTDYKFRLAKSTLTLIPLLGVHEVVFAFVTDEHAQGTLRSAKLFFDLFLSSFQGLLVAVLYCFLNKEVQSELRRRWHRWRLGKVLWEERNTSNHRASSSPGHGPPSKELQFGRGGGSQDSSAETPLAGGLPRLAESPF
Chain of human GcgR (P47871 26-477): as above

| SMILES | EC50 [1] [nM] | EC50 [2] [nM] | EC50 [3] [nM] | EC50 [4] [nM] | EC50 [5] [nM] | EC50 [6] [nM] |
| --- | --- | --- | --- | --- | --- | --- |
| CC[C@H](C)[C@H](NC(=O)[C@H](Cc1ccccc1)NC(=O)[C@H](C)NC(=O)C(C)(C)NC(=O)[C@H](CCC(N)=O)NC(=O)[C@H](C)NC(=O)[C@H](CCCCNC(=O)COCCOCCNC(=O)CC[C@H](NC(=O)CCCCCCCCCCCCCCCCC(=O)O)C(=O)O)NC(=O)[C@H](CCCCN)NC(=O)[C@H](CC(=O)O)NC(=O)[C@H](CC(C)C)NC(=O)[C@](C)(CC(C)C)NC(=O)[C@@H](NC(=O)[C@H](CO)NC(=O)[C@H](Cc1ccc(O)cc1)NC(=O)[C@H](CC(=O)O)NC(=O)[C@H](CO)NC(=O)[C@@H](NC(=O)[C@](C)(Cc1ccccc1)NC(=O)[C@@H](NC(=O)CNC(=O)[C@H](CCC(N)=O)NC(=O)C(C)(C)NC(=O)[C@@H](N)Cc1ccc(O)cc1)[C@@H](C)O)[C@@H](C)O)[C@@H](C)CC)C(=O)N[C@@H](CCC(=O)O)C(=O)N[C@@H](Cc1ccc(O)cc1)C(=O)N[C@@H](CC(C)C)C(=O)N[C@@H](CCC(=O)O)C(=O)N[C@@H](CCC(=O)O)C(=O)NCC(=O)NCC(=O)N1CCC[C@H]1C(=O)N[C@@H](CO)C(=O)N[C@@H](CO)C(=O)NCC(=O)N[C@@H](C)C(=O)N1CCC[C@H]1C(=O)N1CCC[C@H]1C(=O)N1CCC[C@H]1C(=O)N[C@@H](CO)C(N)=O [Example 394] (H-Y[Aib]QGT[αMeF]TSDYSI[αMeL]LDKK([AEEA-γGlu-C18 diacid])AQ[Aib]AFIEYLEEGGPSSGAPPPS-NH2) | 33.2 | 0.226 | 1090 | 5.63 | 0.018 | 7.22 |
| CC[C@H](C)[C@H](NC(=O)[C@H](Cc1ccccc1)NC(=O)[C@H](C)NC(=O)C(C)(C)NC(=O)[C@H](CCC(N)=O)NC(=O)[C@H](C)NC(=O)[C@H](CCCCNC(=O)COCCOCCNC(=O)CC[C@H](NC(=O)CCCCCCCCCCCCCCCCC(=O)O)C(=O)O)NC(=O)[C@H](CCCCN)NC(=O)[C@H](CC(=O)O)NC(=O)[C@H](CC(C)C)NC(=O)[C@](C)(CC(C)C)NC(=O)[C@@H](NC(=O)[C@H](CO)NC(=O)[C@H](Cc1ccc(O)cc1)NC(=O)[C@H](CC(=O)O)NC(=O)[C@H](CO)NC(=O)[C@@H](NC(=O)[C@](C)(Cc1ccccc1)NC(=O)[C@@H](NC(=O)CNC(=O)[C@H](CCC(N)=O)NC(=O)C(C)(C)NC(=O)[C@@H](N)Cc1ccc(O)cc1)[C@@H](C)O)[C@@H](C)O)[C@@H](C)CC)C(=O)N[C@@H](CCC(=O)O)C(=O)N[C@@H](Cc1ccc(O)cc1)C(=O)N[C@@H](CC(C)C)C(=O)N[C@@H](CCC(=O)O)C(=O)N[C@@H](CCC(=O)O)C(=O)NCC(=O)NCC(=O)N1CCC[C@H]1C(=O)N[C@@H](CO)C(=O)N[C@@H](CO)C(=O)NCC(=O)N[C@@H](C)C(=O)N1CCC[C@H]1C(=O)N1CCC[C@H]1C(=O)N1CCC[C@H]1C(=O)N[C@@H](CO)C(=O)N[C@@H](CCC(=O)O)C(=O)NCC(N)=O [Example 395] | 34.7 | 0.349 | 1190 | 5.55 | 0.0248 | 6.69 |
| CC[C@H](C)[C@H](NC(=O)[C@H](Cc1ccccc1)NC(=O)[C@H](C)NC(=O)C(C)(C)NC(=O)[C@H](CCC(N)=O)NC(=O)[C@H](C)NC(=O)[C@H](CCCCNC(=O)COCCOCCNC(=O)CC[C@H](NC(=O)CCCCCCCCCCCCCCCCC(=O)O)C(=O)O)NC(=O)[C@H](CCCCN)NC(=O)[C@H](CC(=O)O)NC(=O)[C@H](CC(C)C)NC(=O)[C@](C)(CC(C)C)NC(=O)[C@@H](NC(=O)[C@H](CO)NC(=O)[C@H](Cc1ccc(O)cc1)NC(=O)[C@H](CC(=O)O)NC(=O)[C@H](CO)NC(=O)[C@@H](NC(=O)[C@](C)(Cc1ccccc1)NC(=O)[C@@H](NC(=O)CNC(=O)[C@H](CCC(N)=O)NC(=O)C(C)(C)NC(=O)[C@@H](N)Cc1ccc(O)cc1)[C@@H](C)O)[C@@H](C)O)[C@@H](C)CC)C(=O)N[C@@H](CCC(=O)O)C(=O)N[C@@H](Cc1ccc(O)cc1)C(=O)N[C@@H](CC(C)C)C(=O)N[C@@H](CCC(=O)O)C(=O)N[C@@H](CCC(=O)O)C(=O)NCC(=O)NCC(=O)N1CCC[C@H]1C(=O)N[C@@H](CO)C(=O)N[C@@H](CO)C(=O)NCC(=O)N[C@@H](C)C(=O)N1CCC[C@H]1C(=O)N1CCC[C@H]1C(=O)N1CCC[C@H]1C(=O)N[C@@H](CCC(=O)O)C(N)=O [Example 396] (H-Y[Aib]QGT[αMeF]TSDYSI[αMeL]LDKK([AEEA-γGlu-C18 diacid])AQ[Aib]AFIEYLEEGGPSSGAPPPE-NH2) | 38.2 | 0.293 | 468 | 4.99 | 0.024 | 9.5 |
| CC[C@H](C)[C@H](NC(=O)[C@H](Cc1ccccc1)NC(=O)[C@H](C)NC(=O)C(C)(C)NC(=O)[C@H](CCC(N)=O)NC(=O)[C@H](C)NC(=O)[C@H](CCCCNC(=O)COCCOCCNC(=O)CC[C@H](NC(=O)CCCCCCCCCCCCCCCCC(=O)O)C(=O)O)NC(=O)[C@H](CCCN)NC(=O)[C@H](CC(=O)O)NC(=O)[C@H](CC(C)C)NC(=O)[C@](C)(CC(C)C)NC(=O)[C@@H](NC(=O)[C@H](CO)NC(=O)[C@H](Cc1ccc(O)cc1)NC(=O)[C@H](CC(=O)O)NC(=O)[C@H](CO)NC(=O)[C@@H](NC(=O)[C@](C)(Cc1ccccc1)NC(=O)[C@@H](NC(=O)CNC(=O)[C@H](CCC(N)=O)NC(=O)C(C)(C)NC(=O)[C@@H](N)Cc1ccc(O)cc1)[C@@H](C)O)[C@@H](C)O)[C@@H](C)CC)C(=O)N[C@@H](CCC(=O)O)C(=O)N[C@@H](Cc1ccc(O)cc1)C(=O)N[C@@H](CC(C)C)C(=O)N[C@@H](CCC(=O)O)C(=O)N[C@@H](CCC(=O)O)C(=O)NCC(=O)NCC(=O)N1CCC[C@H]1C(=O)N[C@@H](CO)C(=O)N[C@@H](CO)C(=O)NCC(=O)N[C@@H](C)C(=O)N1CCC[C@H]1C(=O)N1CCC[C@H]1C(=O)N1CCC[C@H]1C(=O)N[C@@H](CCC(=O)O)C(N)=O [Example 397] (H-Y[Aib]QGT[αMeF]TSDYSI[αMeL]LD[Orn]K([AEEA-γGlu-C18 diacid])AQ[Aib]AFIEYLEEGGPSSGAPPPE-NH2) | 34.9 | 0.2 | 1110 | 5.22 | 0.0247 | 10.1 |
| CC[C@H](C)[C@H](NC(=O)[C@H](Cc1ccccc1)NC(=O)[C@H](C)NC(=O)C(C)(C)NC(=O)[C@H](CCC(N)=O)NC(=O)[C@H](C)NC(=O)[C@H](CCCCNC(=O)COCCOCCNC(=O)CC[C@H](NC(=O)CCCCCCCCCCCCCCCCC(=O)O)C(=O)O)NC(=O)[C@H](CCCCN)NC(=O)[C@H](CC(=O)O)NC(=O)[C@H](CC(C)C)NC(=O)[C@H](CC(C)C)NC(=O)[C@@H](NC(=O)[C@H](CO)NC(=O)[C@H](Cc1ccc(O)cc1)NC(=O)[C@H](CC(=O)O)NC(=O)[C@H](CO)NC(=O)[C@@H](NC(=O)[C@](C)(Cc1ccccc1F)NC(=O)[C@@H](NC(=O)CNC(=O)[C@H](CCC(N)=O)NC(=O)C(C)(C)NC(=O)[C@@H](N)Cc1ccc(O)cc1)[C@@H](C)O)[C@@H](C)O)[C@@H](C)CC)C(=O)N[C@@H](CCC(=O)O)C(=O)N[C@@H](Cc1ccc(O)cc1)C(=O)N[C@@H](CC(C)C)C(=O)N[C@@H](CCC(=O)O)C(=O)N[C@@H](CCC(=O)O)C(=O)NCC(=O)NCC(=O)N1CCC[C@H]1C(=O)N[C@@H](CO)C(=O)N[C@@H](CO)C(=O)NCC(=O)N[C@@H](C)C(=O)N1CCC[C@H]1C(=O)N1CCC[C@H]1C(=O)N1CCC[C@H]1C(=O)N[C@@H](CO)C(=O)N[C@@H](CCC(=O)O)C(=O)NCC(N)=O [Example 398] | 42.2 | 0.186 | 375 | 2.16 | 0.0318 | 12.4 |
